Structures are written as SMILES.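 Method: 48-hour compound exposure of cells in 96-well plates, five concentrations, linear interpolation of endpoints. GI50 marks 50% less growth.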 Active and inactive are the calls of the source. Cut-off read from the data, not from the text of the source: active = GI50 up to about 1.1 µM and inactive = higher. Where only a bound is given, the exact number is not on record here.

This is an account of results in ChEMBL document CHEMBL1201862, “PubChem BioAssay data set” (2004).

Some test systems named below: MDA-MB-435; SF-539; MDA-N; EKVX; M14; TK-10; SNB-75; SN12C; SF-295; SW-620; UACC-62; SK-MEL-5; HL-60; PC-3; OVCAR-5; CAKI-1; OVCAR-3; UACC-257; T47D; NCI-H23.
Assay in all cases: NCI tumour cell line growth inhibition, 48 h

Take `[N-]=[N+]=NCC(=O)c1cnc(O)nc1O`: the GI50 in the assay on MDA-MB-435, in the assay with SF-539, in the assay with MDA-N, in the assay with EKVX, in the assay on M14 and in the assay with TK-10 was > 100 µM (inactive) throughout. Also, the GI50 in the assay with SNB-75, with SN12C, in the assay with SF-295, in the assay with SW-620, with UACC-62 and with SK-MEL-5 was > 100 µM (inactive) throughout. The GI50 in the assay with HL-60, with PC-3, in the assay on OVCAR-5, in the assay on CAKI-1, with OVCAR-3 and in the assay with UACC-257 was > 100 µM (inactive) in each case. The GI50 with T47D and in the assay on NCI-H23 was > 100 µM (inactive) each time.

Take `CCCCCCCCCCCCCCCCCCOCC(O)COP(=O)(O)OCC1OC(n2cc(F)c(=O)[nH]c2=O)CC1O` (stereo not drawn): the GI50 in the assay on MDA-MB-435 is 17.7 µM (inactive); in the assay on SF-539 it was 0.0721 µM (active); in the assay on MDA-N it was 13.4 µM (inactive); in the assay on EKVX, 37 µM (inactive); in the assay with M14, 2.96 µM (inactive); in the assay on TK-10, 8.93 µM (inactive). Besides, the GI50 in the assay on SNB-75 is 2.89 µM (inactive); in the assay with SN12C it was 5.81 µM (inactive); in the assay with SF-295 it was 0.682 µM (active); with SW-620, 13.7 µM (inactive); in the assay with UACC-62, 0.579 µM (active); in the assay on SK-MEL-5 it was 4.01 µM (inactive). Also, the GI50 is 6.56 µM (inactive) in the assay on HL-60; 3.07 µM (inactive) in the assay with PC-3; 12.5 µM (inactive) in the assay with OVCAR-5; 2.16 µM (inactive) in the assay on CAKI-1; 13.7 µM (inactive) in the assay with OVCAR-3; 12.8 µM (inactive) in the assay with UACC-257. Also, the results for the GI50 in the assay on T47D and in the assay with NCI-H23 were 2.58 µM (inactive) and 2.97 µM (inactive), respectively.

Consider `CNC1C(O)C(OC2C(N)CC(N)C(OC3OC(C(C)O)C(O)C(O)C3N)C2O)OCC1(C)O` (stereo not drawn), for which the GI50 in the assay with MDA-MB-435, with SF-539, in the assay on MDA-N, in the assay on EKVX, with M14 and with TK-10 was > 100 µM (inactive) throughout. The GI50 in the assay on SNB-75, in the assay with SN12C, with SF-295, with SW-620, with UACC-62 and with SK-MEL-5 was > 100 µM (inactive) each time. For the same compound, the GI50 in the assay with HL-60, in the assay on PC-3, in the assay on OVCAR-5, in the assay with CAKI-1, with OVCAR-3 and in the assay with T47D was > 100 µM (inactive) in each case. In the assay with NCI-H23, the GI50 was > 100 µM (inactive).

As to `[N-]=[N+]=CC(=O)C1CCCN1C(=O)c1ccccc1` (stereo not drawn), the GI50 in the assay with MDA-MB-435, in the assay on SF-539, in the assay with MDA-N, in the assay on EKVX, in the assay with M14 and in the assay on TK-10 was > 10 µM (inactive) each time. Also, the GI50 in the assay on SNB-75 was 0.585 µM (active); in the assay with SN12C, > 10 µM (inactive); with SF-295, > 10 µM (inactive); with SW-620, > 10 µM (inactive); in the assay on UACC-62 it was > 10 µM (inactive); in the assay with SK-MEL-5, > 10 µM (inactive). Moreover, the GI50 in the assay with HL-60, in the assay with PC-3, with OVCAR-5, with CAKI-1, with OVCAR-3 and in the assay with UACC-257 was > 10 µM (inactive) throughout. Besides, the GI50 with T47D and in the assay with NCI-H23 was > 10 µM (inactive) in each case.

In the case of `CC1(C)CC(=O)c2c(nc3c(ccc4ccccc43)c2-c2ccc(NC(=O)CCC(=O)Nc3ccc(-c4c5c(nc6c4ccc4ccccc46)CC(C)(C)CC5=O)cc3)cc2)C1`, the GI50 in the assay on MDA-MB-435 was > 100 µM (inactive); in the assay with SF-539, > 100 µM (inactive); in the assay on MDA-N it was > 100 µM (inactive); in the assay with EKVX it was 95.3 µM (inactive); in the assay on M14, > 100 µM (inactive); in the assay with TK-10, > 100 µM (inactive). The GI50 is 25 µM (inactive) with SNB-75; > 100 µM (inactive) in the assay with SN12C; > 100 µM (inactive) in the assay on SF-295; > 100 µM (inactive) with SW-620; > 100 µM (inactive) in the assay with UACC-62; > 100 µM (inactive) in the assay on SK-MEL-5. Further, the GI50 in the assay with HL-60, in the assay on PC-3, with OVCAR-5, with CAKI-1, in the assay on OVCAR-3 and in the assay with UACC-257 was > 100 µM (inactive) throughout. Also, the GI50 in the assay with T47D was > 100 µM (inactive).

As to `COC(=O)[C@@H]1C[C@H]([Se]c2ccccc2)CN1S(=O)(=O)c1ccc(C)cc1`, the GI50 is 47.1 µM (inactive) with MDA-MB-435; > 100 µM (inactive) with SF-539; > 100 µM (inactive) in the assay with MDA-N; > 100 µM (inactive) in the assay on EKVX; > 100 µM (inactive) in the assay on M14; > 100 µM (inactive) with TK-10. The GI50 in the assay with SNB-75 was 2.87 µM (inactive); in the assay with SN12C it was > 100 µM (inactive); with SF-295, 40.9 µM (inactive); with SW-620 it was > 100 µM (inactive); with UACC-62, > 100 µM (inactive); in the assay on SK-MEL-5 it was 45.2 µM (inactive). The GI50 in the assay on HL-60 is 36.3 µM (inactive); with PC-3 it was 26.5 µM (inactive); in the assay on OVCAR-5, > 100 µM (inactive); in the assay with CAKI-1, > 100 µM (inactive); with OVCAR-3, 56 µM (inactive); in the assay on UACC-257, > 100 µM (inactive). The GI50 in the assay on T47D is 35.7 µM (inactive); in the assay with NCI-H23 it was > 100 µM (inactive).

On to `OCCOc1ccc(-c2cc(-c3ccccn3)nc(-c3ccccn3)c2)cc1`, for which the GI50 in the assay with MDA-MB-435 was 0.526 µM (active); with SF-539 it was 0.19 µM (active); in the assay with MDA-N it was 0.697 µM (active); with EKVX, 0.107 µM (active); with M14, 0.219 µM (active); with TK-10 it was 0.889 µM (active). In addition, the GI50 is 0.458 µM (active) in the assay on SNB-75; 0.195 µM (active) with SN12C; 0.222 µM (active) with SF-295; 0.267 µM (active) in the assay with SW-620; 0.206 µM (active) in the assay with UACC-62; 0.23 µM (active) in the assay on SK-MEL-5. For the same compound, the GI50 in the assay with HL-60 is 0.0538 µM (active); in the assay on PC-3 it was 0.296 µM (active); in the assay with OVCAR-5 it was 0.192 µM (active); in the assay on CAKI-1, 0.398 µM (active); with OVCAR-3, 0.11 µM (active); in the assay with UACC-257, 0.481 µM (active). Moreover, the GI50 in the assay with T47D is 0.553 µM (active); in the assay on NCI-H23, 0.447 µM (active).

Consider `CC(C)NCCCNc1c2ccccc2nc2cccc([N+](=O)[O-])c12`, for which the GI50 was 0.0103 µM (active) in the assay on MDA-MB-435; 0.0484 µM (active) in the assay on SF-539; 0.0138 µM (active) in the assay on MDA-N; 0.0177 µM (active) in the assay with EKVX; 0.0113 µM (active) with M14; 0.0373 µM (active) in the assay with TK-10. The GI50 was 0.0308 µM (active) in the assay on SNB-75; 0.00957 µM (active) in the assay on SN12C; 0.00746 µM (active) in the assay on SF-295; 0.00514 µM (active) with SW-620; 0.0125 µM (active) in the assay with UACC-62; 0.00354 µM (active) with SK-MEL-5. Besides, the GI50 in the assay on HL-60 is 0.013 µM (active); in the assay on PC-3, 0.00745 µM (active); in the assay with OVCAR-5, 0.0128 µM (active); in the assay with CAKI-1, 0.029 µM (active); in the assay with OVCAR-3, 0.00834 µM (active); in the assay on UACC-257, 0.0445 µM (active). For the same compound, the figures for the GI50 with T47D and in the assay with NCI-H23 were 0.00851 µM (active) and 0.00156 µM (active), respectively.

Take `O=C(N/N=C1/C(=O)c2c3ccccc3cc3cccc1c23)c1ccccc1`: the GI50 in the assay with MDA-MB-435 was 25.9 µM (inactive); in the assay on SF-539, 37.1 µM (inactive); in the assay with MDA-N it was 39.4 µM (inactive); in the assay with EKVX, 75.7 µM (inactive); in the assay with M14, 48.4 µM (inactive); in the assay on TK-10 it was 22.1 µM (inactive). The GI50 was 27.2 µM (inactive) in the assay on SNB-75; 37.8 µM (inactive) with SN12C; 20.5 µM (inactive) in the assay on SF-295; > 100 µM (inactive) in the assay on SW-620; 26.8 µM (inactive) with UACC-62; 23.6 µM (inactive) with SK-MEL-5. In addition, the GI50 in the assay with HL-60 was > 68.9 µM (inactive); in the assay with PC-3, 26.7 µM (inactive); with OVCAR-5 it was 34.3 µM (inactive); in the assay on CAKI-1, 26.4 µM (inactive); in the assay with OVCAR-3, 42.3 µM (inactive); with UACC-257, > 62.1 µM (inactive). Besides, the GI50 in the assay on T47D is 3.69 µM (inactive); in the assay on NCI-H23, 36.3 µM (inactive).

As to `O=S(=O)(O)CCCc1cccc2ccccc12`, the GI50 with MDA-MB-435, with SF-539, with MDA-N, in the assay on EKVX, in the assay on M14 and in the assay with TK-10 was > 100 µM (inactive) in each case. In addition, the GI50 with SNB-75, in the assay on SN12C, with SF-295, in the assay with SW-620, in the assay on UACC-62 and in the assay on SK-MEL-5 was > 100 µM (inactive) each time. Besides, the GI50 was 31.3 µM (inactive) with HL-60; > 100 µM (inactive) with PC-3; > 100 µM (inactive) in the assay with OVCAR-5; > 100 µM (inactive) in the assay with CAKI-1; > 100 µM (inactive) in the assay on OVCAR-3; > 100 µM (inactive) with UACC-257. The GI50 with T47D and in the assay on NCI-H23 was > 100 µM (inactive) throughout.
